Assays:
[1] = Storage stability of methanol/hexane extraction liquid, conventional pretreatment (FIG. 3); assay type: physicochemical; conditions: various storage temperatures (FIG. 3)
Protocol: In this case, since the measurement is influenced by a water-soluble antioxidation substance in the specimen, such as vitamin C and uric acid, etc., a pretreatment is performed for subjecting the specimen to an extraction treatment with methanol/hexane so as to distribute the water-soluble antioxidation substance into a methanol phase and the coenzyme Q-10, etc., into a hexane phase.
It is therefore necessary to perform analysis immediately after the extraction of the specimen. […] Herein, each temperature indicates a storage temperature of the hexane extraction liquid in FIG. 3.

[2] = Storage stability of isopropyl alcohol extracted liquid from human blood plasma (FIG. 5); assay type: physicochemical; conditions: isopropyl alcohol extract of human blood plasma, stored at around 4° C., even after at least 11 hours
Protocol: 50 μl of human blood plasma as a specimen is sampled (S-1 in FIG. 4), 950 μl of isopropyl alcohol is added into it (S-2 in FIG. 4), and then they are mixed sufficiently. Subsequently, they are subjected to a centrifugal separator at a rotational speed of 12,000 rpm for 3 minutes and at a temperature of 4° C. Thus, coenzyme Q-10 and a 2-electron reduced form thereof are extracted from the specimen into an isopropyl alcohol phase (S-3 in FIG. 4).
When an extracted liquid into which the coenzyme Q-10, etc., has been extracted is stored at a temperature around 4° C. […] Thus, the alteration of a stored analytical sample can be prevented. Additionally, the longitudinal axis in regard to coenzyme Q-10 in FIG. 5(b) represents the ratio (molar-ratio) of the coenzyme Q-10 occupied in the total quantity of the coenzyme Q-10 and the 2-electron reduced form thereof.

## COc1c(O)c(C)c(C/C=C(\C)CC/C=C(\C)CC/C=C(\C)CC/C=C(\C)CC/C=C(\C)CC/C=C(\C)CC/C=C(\C)CC/C=C(\C)CC/C=C(\C)CCC=C(C)C)c(O)c1OC [2-electron reduced form of coenzyme Q-10]
[1]
  stability / oxidation in the hexane extraction liquid after pretreatment until injection into HPLC: oxidized at a substantial rate
[2]
  oxidation of the 2-electron reduced form during storage of the extracted liquid: rarely oxidized

## COC1=C(OC)C(=O)C(C/C=C(\C)CC/C=C(\C)CC/C=C(\C)CC/C=C(\C)CC/C=C(\C)CC/C=C(\C)CC/C=C(\C)CC/C=C(\C)CC/C=C(\C)CCC=C(C)C)=C(C)C1=O [coenzyme Q-10, 2,3-dimethoxy-5-methyl-6-polyprenyl-1,4-benzoquinone]
[1]
  stability / oxidation in the hexane extraction liquid after pretreatment until injection into HPLC: chemically unstable
